Several values for one entry are separate records, joined by “and”; a condition that tells them apart may be missing. Equal entries are not always repeated.
How the values were obtained:
[1] = Complete blood count / biological data of SS patients during treatment with hydroxyurea; format: in vivo, human
HbF [2] = assay: Mean HbF percentage (% HbF) by HPLC in SS patients before and during treatment with hydroxyurea
HbF [3] = assay: HbF content of each red blood cell by flow cytometry (HbF distribution) during treatment with hydroxyurea
[4] = SS patients, M6 of hydroxyurea, median
[5] = 9 SS patients, D15-M3, mean (standard deviation)
[6] = 9 SS patients, ≥M6, mean (standard deviation)

## NC(=O)NO [hydroxyurea]
[1]; [4]
  Hemoglobin: 9.35 g/dL
  MCHC: 34.40 g/dL
  MCHCo: 33.80 pg
  MCV: 100.50 femtoliter
[1]; after 6 months of treatment
  change in mean corpuscular hemoglobin concentration (MCHC): no significant variation
  change in mean corpuscular volume (MCV): significant increase
  change in mean hemoglobin content per red blood cell (MCHCo): significant increase
[1]; after 6 months of treatment, decrease not significant
  change in percentage of dense red blood cells: tendency to decrease
[1]; patient 11
  ASAT, relative difference in % D 0 vs M 6: −52% and −52.7%
  HbF, relative difference in % D 0 vs M 6: +14.5%
  LDH, relative difference in % D 0 vs M 6: −57% and −57.7%
  RETIC, relative difference in % D 0 vs M 6: −77% and −77.1%
[1]; patient 11, M 6
  ASAT (aspartate transaminase): 26 IU/l
  HbF: 7.1 g/dL
  LDH (lactate dehydrogenase): 383 IU/l
  MCHCo: 38.9 pg
[1]; patient 24
  ASAT, relative difference in % D 0 vs M 6: −9.4%
  HbF, relative difference in % D 0 vs M 6: +14.5%
  LDH, relative difference in % D 0 vs M 6: −40.5%
  RETIC, relative difference in % D 0 vs M 6: −57% and −57.2%
[1]; patient 24, M 6
  ASAT (aspartate transaminase): 29 IU/l
  HbF: 8.7 g/dL
  LDH (lactate dehydrogenase): 303 IU/l
  MCHCo: 42 pg
HbF [2]; after 6 months of treatment, SS patients
  increase of mean HbF percentage (% HbF): approximately 3 fold
HbF [2]; patient 2, M6
  % HbF: 25%
HbF [2]; patient 11, M 6
  % HbF: 18%
HbF [2]; patient 24, M 6
  % HbF: 18%
HbF [2]; total red blood cells, SS patients, D15-M1 of hydroxyurea, median
  % HbF: 4.9%
HbF [2]; total red blood cells, SS patients, M3-M4 of hydroxyurea, median
  % HbF: 7%
HbF [2]; total red blood cells, SS patients, M6 of hydroxyurea, median
  % HbF: 10.05%
HbF [3]; [5]
  % RBCs with HbF [0; 2[ pg: 65.63 (25.13 % RBCs
  % RBCs with HbF [2; 4[ pg: 11.32 (6.80 % RBCs
  % RBCs with HbF [4; 6[ pg: 4.88 (2.90 % RBCs
  % RBCs with HbF [6; 8[ pg: 3.42 (2.52 % RBCs
  % RBCs with HbF [8; 10[ pg: 2.65 (2.18 % RBCs
  % RBCs with HbF [10; 15[ pg: 2.41 (2.73 % RBCs
  % RBCs with HbF [15; 20[ pg: 4.42 (4.27 % RBCs
  % RBCs with HbF ≥20 pg: 5.27 (8.56 % RBCs
HbF [3]; [6]
  % RBCs with HbF [0; 2[ pg: 53.17 (30.63 % RBCs
  % RBCs with HbF [2; 4[ pg: 15.05 (10.11 % RBCs
  % RBCs with HbF [4; 6[ pg: 6.70 (4.39 % RBCs
  % RBCs with HbF [6; 8[ pg: 3.92 (2.44 % RBCs
  % RBCs with HbF [8; 10[ pg: 2.72 (1.83 % RBCs
  % RBCs with HbF [10; 15[ pg: 2.55 (2.57 % RBCs
  % RBCs with HbF [15; 20[ pg: 4.29 (3.42 % RBCs
  % RBCs with HbF ≥20 pg: 11.60 (18.64 % RBCs
HbF [3]; D0 to M6
  variation of red blood cells with medium-high HbF contents: much lower variations
HbF [3]; after 6 months of treatment
  change in red blood cells having a very low HbF content: decreased greatly
  increase of red blood cells with HbF content greater than 20 pg: up to 3 fold
HbF [3]; after 6 months of treatment, heterogeneous before treatment in 8 patients, 9 analyzed
  patients in whom HbF follows a homogeneous distribution: 6 patients
HbF [3]; after 6 months of treatment, variation not significant
  increase of red blood cells with HbF content greater than 20 g: up to 3 times
HbF [3]; after ≥M4
  patients in whom HbF distribution becomes homogeneous: 5 patients
HbF [3]; between D0 and M6, 9 patients
  variation in red blood cells having the lowest HbF contents (0 and 2 pg), given as increase: approximately 25%
HbF [3]; patient 2, D15-M1
  % RBCs with HbF [0; 2[ pg: 9.21 % RBCs
  % RBCs with HbF [2; 4[ pg: 14.72 % RBCs
  % RBCs with HbF [4; 6[ pg: 9.52 % RBCs
  % RBCs with HbF [6; 8[ pg: 8.47 % RBCs
  % RBCs with HbF [8; 10[ pg: 7.35 % RBCs
  % RBCs with HbF [10; 15[ pg: 9.03 % RBCs
  % RBCs with HbF [15; 20[ pg: 14.27 % RBCs
  % RBCs with HbF ≥20 pg: 27.43 % RBCs
HbF [3]; patient 2, M3-M4
  % RBCs with HbF [0; 2[ pg: 5.29 % RBCs
  % RBCs with HbF [2; 4[ pg: 8.62 % RBCs
  % RBCs with HbF [4; 6[ pg: 10.61 % RBCs
  % RBCs with HbF [6; 8[ pg: 10.39 % RBCs
  % RBCs with HbF [8; 10[ pg: 8.75 % RBCs
  % RBCs with HbF [10; 15[ pg: 8.50 % RBCs
  % RBCs with HbF [15; 20[ pg: 14.54 % RBCs
  % RBCs with HbF ≥20 pg: 33.30 % RBCs
HbF [3]; patient 2, at M6
  change in red blood cells containing HbF content greater than 20 pg: clear increase
HbF [3]; patient 2, ≥M6
  % RBCs with HbF [0; 2[ pg: 4.98 % RBCs
  % RBCs with HbF [2; 4[ pg: 7.04 % RBCs
  % RBCs with HbF [4; 6[ pg: 5.53 % RBCs
  % RBCs with HbF [6; 8[ pg: 4.85 % RBCs
  % RBCs with HbF [8; 10[ pg: 4.56 % RBCs
  % RBCs with HbF [10; 15[ pg: 7.48 % RBCs
  % RBCs with HbF [15; 20[ pg: 9.75 % RBCs
  % RBCs with HbF ≥20 pg: 55.81 % RBCs
HbF [3]; patient 11, D15-M1
  % RBCs with HbF [0; 2[ pg: 55.38 % RBCs
  % RBCs with HbF [2; 4[ pg: 23.31 % RBCs
  % RBCs with HbF [4; 6[ pg: 6.25 % RBCs
  % RBCs with HbF [6; 8[ pg: 3.07 % RBCs
  % RBCs with HbF [8; 10[ pg: 2.55 % RBCs
  % RBCs with HbF [10; 15[ pg: 2.24 % RBCs
  % RBCs with HbF [15; 20[ pg: 4.42 % RBCs
  % RBCs with HbF ≥20 pg: 2.78 % RBCs
HbF [3]; patient 11, M3-M4
  % RBCs with HbF [0; 2[ pg: 48.83 % RBCs
  % RBCs with HbF [2; 4[ pg: 31.73 % RBCs
  % RBCs with HbF [4; 6[ pg: 9.30 % RBCs
  % RBCs with HbF [6; 8[ pg: 4.32 % RBCs
  % RBCs with HbF [8; 10[ pg: 2.04 % RBCs
  % RBCs with HbF [10; 15[ pg: 0.72 % RBCs
  % RBCs with HbF [15; 20[ pg: 2.46 % RBCs
  % RBCs with HbF ≥20 pg: 0.59 % RBCs
HbF [3]; patient 11, at 6 months of treatment
  RBCs >6 pg HbF: 57%
HbF [3]; patient 11, at M6
  decrease of red blood cells with HbF content of less than 2 pg: approximately 73%
HbF [3]; patient 11, ≥M6
  % RBCs with HbF [0; 2[ pg: 12.93 % RBCs
  % RBCs with HbF [2; 4[ pg: 17.62 % RBCs
  % RBCs with HbF [4; 6[ pg: 11.85 % RBCs
  % RBCs with HbF [6; 8[ pg: 8.05 % RBCs
  % RBCs with HbF [8; 10[ pg: 6.08 % RBCs
  % RBCs with HbF [10; 15[ pg: 6.13 % RBCs
  % RBCs with HbF [15; 20[ pg: 9.77 % RBCs
  % RBCs with HbF ≥20 pg: 27.57 % RBCs
HbF [3]; patient 24, D15-M1
  % RBCs with HbF [0; 2[ pg: 53.17 % RBCs
  % RBCs with HbF [2; 4[ pg: 11.57 % RBCs
  % RBCs with HbF [4; 6[ pg: 6.69 % RBCs
  % RBCs with HbF [6; 8[ pg: 5.58 % RBCs
  % RBCs with HbF [8; 10[ pg: 4.50 % RBCs
  % RBCs with HbF [10; 15[ pg: 3.89 % RBCs
  % RBCs with HbF [15; 20[ pg: 7.56 % RBCs
  % RBCs with HbF ≥20 pg: 7.04 % RBCs
HbF [3]; patient 24, M3-M4
  % RBCs with HbF [0; 2[ pg: 44.56 % RBCs
  % RBCs with HbF [2; 4[ pg: 24.93 % RBCs
  % RBCs with HbF [4; 6[ pg: 12.53 % RBCs
  % RBCs with HbF [6; 8[ pg: 5.81 % RBCs
  % RBCs with HbF [8; 10[ pg: 3.09 % RBCs
  % RBCs with HbF [10; 15[ pg: 1.87 % RBCs
  % RBCs with HbF [15; 20[ pg: 3.81 % RBCs
  % RBCs with HbF ≥20 pg: 3.41 % RBCs
HbF [3]; patient 24, at 6 months of treatment
  RBCs >6 pg HbF: 24%
HbF [3]; patient 24, at M6
  decrease of red blood cells with HbF content of less than 2 pg: approximately 40%
HbF [3]; patient 24, ≥M6
  % RBCs with HbF [0; 2[ pg: 36.98 % RBCs
  % RBCs with HbF [2; 4[ pg: 25.28 % RBCs
  % RBCs with HbF [4; 6[ pg: 13.64 % RBCs
  % RBCs with HbF [6; 8[ pg: 6.92 % RBCs
  % RBCs with HbF [8; 10[ pg: 3.93 % RBCs
  % RBCs with HbF [10; 15[ pg: 2.70 % RBCs
  % RBCs with HbF [15; 20[ pg: 5.36 % RBCs
  % RBCs with HbF ≥20 pg: 5.20 % RBCs
HbF [3]; starting from M2
  patients in whom HbF distribution becomes homogeneous: 1 patient

Source: patent publication US12345718B2, “Method for determining the haemoglobin content of an erythroid cell” (UNIVERSITÉ PARIS EST CRÉTEIL VAL DE MARNE, priority 2016, dated 2025)
